Measured values taken from patent publication US20020137929A1, “1 - (3-heterocyclylphenyl) isothiourea, -isourea, -guanidine and -amidine herbicidal agents” (Intellectual Property Department, BASF Aktiengesellschaft, priority 1998, published 2002).

What was measured:
[1] = tested on: AMBEL (Ragweed, Common); assay: Postemergence herbicidal evaluation; assay type: in vivo, Ambrosia artemisifolia; details: postemergence
Method in brief: (§1)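 Visual 0-9 injury score (stand, vigor, malformation, size, chlorosis, appearance vs untreated) taken four to five weeks post-spray, averaged across repeat tests. Test plants about two weeks old; foliar spray of acetone/water (1:1) with 0.5% surfactant delivering ~0.0156-0.500 kg active/ha.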

[2] = tested on: CASOB (Sicklepod); assay: Postemergence herbicidal evaluation; assay type: in vivo, Cassia obtusifolia; details: postemergence
Method in brief: as §1

[3] = tested on: GALAP (Galium); assay: Postemergence herbicidal evaluation; assay type: in vivo, Galium aparine; details: postemergence
Method in brief: as §1

[4] = tested on: GLXMAW (Soybean, Williams); assay: Postemergence herbicidal evaluation; assay type: in vivo, Glycine max, (L.) Merr. cv Williams; details: postemergence
Method in brief: as §1

[5] = tested on: TRZAWR (Wheat, Winter, cv Riband); assay: Postemergence herbicidal evaluation; assay type: in vivo, Triticum aestivum; details: postemergence
Method in brief: as §1

[6] = tested on: GALAP (Galium); assay: Preemergence herbicidal evaluation; assay type: in vivo, Galium aparine; details: rated 4-5 weeks after treatment
Method in brief: (§2)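 Sown cups got a single aqueous acetone spray of test compound (roughly 0.0156–0.500 kg/ha) before seedlings emerged. Evaluation, 4–5 weeks on, used a 0–9 visual scale covering plant stand, vigor, size, malformation, chlorosis and general appearance compared with controls.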

[7] = tested on: SETVI (Foxtail, Green); assay: Preemergence herbicidal evaluation; assay type: in vivo, Setaria viridis; details: rated 4-5 weeks after treatment
Method in brief: as §2

[8] = tested on: ORYSAT (Rice, Tebonnet); assay: Preemergence herbicidal evaluation; assay type: in vivo, Oryza sativa, (L.) Tebonnet; details: rated 4-5 weeks after treatment
Method in brief: as §2

[9] = tested on: ECHORC (Watergrass (Calif.)); assay: Preemergence weed control under flooded paddy conditions; assay type: in vivo, Echinochloa oryzoides; details: rated 3-4 weeks after treatment
Method in brief: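 Ratings on a 0-9 visual scale cover stand, vigor, malformation, size, chlorosis and overall appearance relative to a control, taken three to four weeks post-treatment. Application was into flood water over freshly sown silt loam at roughly 0.0313 to 0.500 kg/ha.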

[10] = tested on: CYPSE (Flatsedge); assay: as above; assay type: in vivo, Cyperus serotinus; details: rated 3-4 weeks after treatment
Method in brief: (§3)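 Herbicidal effect is scored visually on a 0-9 scale against an untreated control, three to four weeks after compounds are pipetted into the flood water (1.5 to 3 cm deep) over seeds planted in silt loam at 0.5 cm depth. Rates: about 0.0313 to 0.500 kg/ha.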

[11] = tested on: SAGPY (Arrowhead (Pygmaea)); assay: as above; assay type: in vivo, Sagittaria pygmaea; details: rated 3-4 weeks after treatment
Method in brief: as §3

[12] = tested on: ECHORC (Watergrass (Calif.)); assay: Postemergence weed control under flooded paddy conditions; assay type: in vivo, Echinochloa oryzoides; details: postemergence weeds, rated 3 to 4 weeks after treatment
Method in brief: (§4)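 Flood-water application, about 0.0313–0.500 kg/ha a.i. in aqueous/acetone 50/50 v/v; water depth 1.5–3 cm throughout. Weeds 3–5 cm, rice 1.5–2.5 leaf. Greenhouse; 0–9 visual rating vs control at 3–4 wk.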

[13] = tested on: SAGPY (Arrowhead (Pygmaea)); assay: as above; assay type: in vivo, Sagittaria pygmaea; details: postemergence weeds, rated 3 to 4 weeks after treatment
Method in brief: as §4

CCOC(=O)C(c1ccc(Cl)cc1)N1C(=O)CSC1=Nc1cc(-n2c(=O)cc(C(F)(F)F)n(C)c2=O)c(F)cc1Cl (racemic) [Compound 79, Ethyl α-(p-chlorophenyl)-2-{{2-chloro-5-[3,6-dihydro-3-methyl-2,6-dioxo-4-(trifluoromethyl)-1(2H)-pyrimidinyl]-4-fluorophenyl}imino}-4-oxo-3-thiazolidineacetate, DL-]
AMBEL herbicidal rating ([1]; rate 0.0158 kg/ha): 6.0
AMBEL herbicidal rating ([1]; rate 0.0315 kg/ha): 7.0
AMBEL herbicidal rating ([1]; rate 0.0630 kg/ha): 9.0
CASOB herbicidal rating ([2]; rate 0.0158 kg/ha): 1.0
CASOB herbicidal rating ([2]; rate 0.0315 kg/ha): 1.0
CASOB herbicidal rating ([2]; rate 0.0630 kg/ha): 1.0
GALAP herbicidal rating ([3]; rate 0.0158 kg/ha): 1.0
GALAP herbicidal rating ([3]; rate 0.0315 kg/ha): 2.0
GALAP herbicidal rating ([3]; rate 0.0630 kg/ha): 1.0
GLXMAW herbicidal rating ([4]; rate 0.0158 kg/ha): 4.5
GLXMAW herbicidal rating ([4]; rate 0.0315 kg/ha): 5.0
GLXMAW herbicidal rating ([4]; rate 0.0630 kg/ha): 5.0
TRZAWR herbicidal rating ([5]; rate 0.0158 kg/ha): 3.0
TRZAWR herbicidal rating ([5]; rate 0.0315 kg/ha): 2.5
TRZAWR herbicidal rating ([5]; rate 0.0630 kg/ha): 5.0
Preemergence herbicidal rating GALAP ([6]; rate 0.0313 kg/ha): 0.0
Preemergence herbicidal rating GALAP ([6]; rate 0.0625 kg/ha): 0.0
Preemergence herbicidal rating GALAP ([6]; rate 0.1250 kg/ha): 0.0
Preemergence herbicidal rating GALAP ([6]; rate 0.2500 kg/ha): 0.0
Preemergence herbicidal rating SETVI ([7]; rate 0.0313 kg/ha): 1.0
Preemergence herbicidal rating SETVI ([7]; rate 0.0625 kg/ha): 1.0
Preemergence herbicidal rating SETVI ([7]; rate 0.1250 kg/ha): 1.0
Preemergence herbicidal rating SETVI ([7]; rate 0.2500 kg/ha): 4.0
Preemergence herbicidal rating ORYSAT ([8]; rate 0.0313 kg/ha): 0.0
Preemergence herbicidal rating ORYSAT ([8]; rate 0.0625 kg/ha): 1.0
Preemergence herbicidal rating ORYSAT ([8]; rate 0.1250 kg/ha): 0.0
Preemergence herbicidal rating ORYSAT ([8]; rate 0.2500 kg/ha): 1.0
ECHORC herbicidal effect rating ([9]; 0.0313 kg/ha): 5.0
ECHORC herbicidal effect rating ([9]; 0.0625 kg/ha): 6.0
ECHORC herbicidal effect rating ([9]; 0.1250 kg/ha): 7.0
ECHORC herbicidal effect rating ([9]; 0.2500 kg/ha): 8.0
CYPSE herbicidal effect rating ([10]; 0.0313 kg/ha): 0.0
CYPSE herbicidal effect rating ([10]; 0.0625 kg/ha): 0.0
CYPSE herbicidal effect rating ([10]; 0.1250 kg/ha): 0.0
CYPSE herbicidal effect rating ([10]; 0.2500 kg/ha): 9.0
SAGPY herbicidal effect rating ([11]; 0.0313 kg/ha): 0.0
SAGPY herbicidal effect rating ([11]; 0.0625 kg/ha): 0.0
SAGPY herbicidal effect rating ([11]; 0.1250 kg/ha): 4.0
SAGPY herbicidal effect rating ([11]; 0.2500 kg/ha): 4.0
Herbicidal rating ECHORC ([12]; Rate 0.0313 kg/ha): 5.0
Herbicidal rating ECHORC ([12]; Rate 0.0625 kg/ha): 6.0
Herbicidal rating ECHORC ([12]; Rate 0.1250 kg/ha): 7.0
Herbicidal rating ECHORC ([12]; Rate 0.2500 kg/ha): 8.0
Herbicidal rating SAGPY ([13]; Rate 0.0313 kg/ha): 0.0
Herbicidal rating SAGPY ([13]; Rate 0.0625 kg/ha): 0.0
Herbicidal rating SAGPY ([13]; Rate 0.1250 kg/ha): 4.0
Herbicidal rating SAGPY ([13]; Rate 0.2500 kg/ha): 4.0
